Results reported in US9540343B2 (Gilead Sciences, Inc., priority 2011, dated 2017).

Columns and labels:
HIV-IIIb = assay: Test A: Antiviral assay in MT4 cells; assay type: cell-based, HIV-1; conditions: Human immunodeficiency virus 1, IIIB, MT4, 120 h, read-out: % inhibition at 2 μM, percent inhibition of virus-induced cell killing, from dose response curve at 2 uM drug; MT-4 cells infected with HIV-IIIb, 5 days, CellTiter-Glo
in vitro = conditions: human, uninfected MT-4 cells, CC50 (nM), same protocol as Test A, CellTiter-Glo
How it was run: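 Cytoprotection read-out: CellTiter-Glo chemiluminescence after 5 days at 37 °C of HIV-IIIb-infected MT-4 cells (m.o.i. 0.003) with compound in 10-point 3-fold dilutions, quadruplicate, 10% FBS. Cytotoxicity (CC50) measured identically without virus.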

Row | SMILES | inhibition at 2 µM (HIV-IIIb) | CC50 at 5 days (in vitro)
1 | O=C(Cn1nc(C(F)(F)F)cc1C1CC1)N[C@@H](Cc1cc(F)cc(F)c1)c1ncccc1-c1cnc2[nH]ccc2c1 [Example 61F, (S)—N-(1-(3-(1H-pyrrolo[2,3-b]pyridin-5-yl)pyridin-2-yl)-2-(3,5-difluorophenyl)ethyl)-2-(5-cyclopropyl-3-(trifluoromethyl)-1H-pyrazol-1-yl)acetamide] | 74% | 17900 nM
2 | O=C(Cn1nc(C(F)(F)F)c2c1CCCC2)N[C@@H](Cc1cc(F)cc(F)c1)c1ncccc1-c1cccc(C(=O)NC2CC2)c1 [Example 62, (S)—N-cyclopropyl-3-(2-(2-(3,5-difluorophenyl)-1-(2-(3-(trifluoromethyl)-4,5,6,7-tetrahydro-1H-indazol-1-yl)acetamido)ethyl)pyridin-3-yl)benzamide] | 80% | 9980 nM
3 | CNC(=O)c1cc(F)cc(-c2cccnc2[C@H](Cc2cc(F)cc(F)c2)NC(=O)Cc2c[nH]c3ccc(F)cc23)c1 [Example 63, (S)-3-(2-(2-(3,5-difluorophenyl)-1-(2-(5-fluoro-1H-indol-3-yl)acetamido)ethyl)pyridin-3-yl)-5-fluoro-N-methylbenzamide] | 22% | 14800 nM
4 | COc1ccc(-c2cccnc2[C@H](Cc2cc(F)cc(F)c2)NC(=O)Cc2c[nH]c3ccc(F)cc23)cn1 [Example 64, (S)—N-(2-(3,5-difluorophenyl)-1-(6′-methoxy-3,3′-bipyridin-2-yl)ethyl)-2-(5-fluoro-1H-indol-3-yl)acetamide] | 88% | 21100 nM
5 | Cc1cc(-c2cccnc2[C@H](Cc2cc(F)cc(F)c2)NC(=O)Cn2nc(C(F)(F)F)c3c2CCCC3)ccc1F [Example 65, (S)—N-(2-(3,5-difluorophenyl)-1-(3-(4-fluoro-3-methylphenyl)pyridin-2-yl)ethyl)-2-(3-(trifluoromethyl)-4,5,6,7-tetrahydro-1H-indazol-1-yl)acetamide] | 33% | 11100 nM
6 | O=C(Cc1c[nH]c2ccc(F)cc12)N[C@@H](Cc1cc(F)cc(F)c1)c1ncccc1-c1cccc(C(=O)NC2CC2)c1 [Example 66, (S)—N-cyclopropyl-3-(2-(2-(3,5-difluorophenyl)-1-(2-(5-fluoro-1H-indol-3-yl)acetamido)ethyl)pyridin-3-yl)benzamide] | -2% | 16800 nM
7 | O=C(Cc1c[nH]c2ccc(F)cc12)N[C@@H](Cc1cc(F)cc(F)c1)c1ncccc1-c1cccc(OC(F)(F)F)c1 [Example 67, (S)—N-(2-(3,5-difluorophenyl)-1-(3-(3-(trifluoromethoxy)phenyl)pyridin-2-yl)ethyl)-2-(5-fluoro-1H-indol-3-yl)acetamide] | 0% | 6460 nM
8 | COC(=O)Nc1ccc(-c2cccnc2[C@H](Cc2cc(F)cc(F)c2)NC(=O)Cn2nc(C(F)F)c3c2C(F)(F)C2CC32)cc1 (stereo partly drawn) [Example 68B, (S)-methyl 4-(2-(1-(3-(difluoromethyl)-5,6-dihydro-4,5-(methano)-6,6-difluoro-cyclopenta[c]pyrazol-1(4H)-ylacetamido)-2-(3,5-difluorophenyl)ethyl)pyridin-3-yl)phenylcarbamate] | 28% | > 53200 nM
9 | Cc1ccc(-c2cccnc2[C@H](Cc2cc(F)cc(F)c2)NC(=O)Cc2c[nH]c3ccc(F)cc23)cc1 [Example 69, (S)—N-(2-(3,5-difluorophenyl)-1-(3-p-tolylpyridin-2-yl)ethyl)-2-(5-fluoro-1H-indol-3-yl)acetamide] | 84% | 6690 nM
10 | CC(C)NS(=O)(=O)c1ccc(-c2cccnc2[C@H](Cc2cc(F)cc(F)c2)NC(=O)Cn2nc(C(F)F)c3c2C(F)(F)C2CC32)cc1 (stereo partly drawn) [Example 70, (S)—N-(1-(3-(4-(N-isopropylsulfamoyl)phenyl)-pyridin-2-yl)-2-(3,5-difluorophenyl)ethyl)-2-(3-(difluoromethyl)-5,6-dihydro-4,5-(methano)-6,6-difluoro-cyclopenta[c]pyrazol-1(4H)-yl)acetamide] | 56% | 51200 nM
11 | O=C(Cn1nc(C(F)F)c2c1C(F)(F)C1CC21)N[C@@H](Cc1cc(F)cc(F)c1)c1ncccc1-c1ccc(S(=O)(=O)N2CCCCC2)cc1 (stereo partly drawn) [Example 71, (S)—N-(1-(3-(4-((piperidin-1-yl)sulfonyl)phenyl)-pyridin-2-yl)-2-(3,5-difluorophenyl)ethyl)-2-(3-(difluoromethyl)-5,6-dihydro-4,5-(methano)-6,6-difluoro-cyclopenta[c]pyrazol-1(4H)-yl)acetamide] | 64% | > 53200 nM
12 | O=C(Cc1c[nH]c2ccc(F)cc12)N[C@@H](Cc1cc(F)cc(F)c1)c1ncccc1-c1ccsc1 [Example 72, (S)—N-(2-(3,5-difluorophenyl)-1-(3-(thiophen-3-yl)pyridin-2-yl)ethyl)-2-(5-fluoro-1H-indol-3-yl)acetamide] | 56% | 16200 nM
13 | Cn1ncc2ccc(-c3cccnc3[C@H](Cc3cc(F)cc(F)c3)NC(=O)Cn3nc(C(F)F)c4c3C(F)(F)C3CC43)cc21 (stereo partly drawn) [Example 73, (S)—N-(1-(3-(1-methylindazole-6-yl)-pyridin-2-yl)-2-(3,5-difluorophenyl)ethyl)-2-(3-(difluoromethyl)-5,6-dihydro-4,5-(methano)-6,6-difluoro-cyclopenta[c]pyrazol-1(4H)-yl)acetamide] | 15% | 9790 nM
14 | CC12CCC(c3c(C(F)(F)F)nn(CC(=O)N[C@@H](Cc4cc(F)cc(F)c4)c4ncccc4-c4ccc(F)c(C(N)=O)c4)c31)C2(C)C (stereo partly drawn) [Example 74D, (S)-5-(2-(2-(3,5-difluorophenyl)-1-(2-(L-4,5,6,7-Tetrahydro-3-trifluoromethyl-7,8,8-trimethyl-1H-4,7-(methano)indazol-1-yl)acetamido)ethyl)pyridin-3-yl)-2-fluorobenzamide] | 4% | 8470 nM
15 | Cc1ccc2cc(-c3cccnc3[C@H](Cc3cc(F)cc(F)c3)NC(=O)Cn3nc(C(F)F)c4c3C(F)(F)C3CC43)ccc2n1 (stereo partly drawn) [Example 75, (S)—N-(1-(3-(2-methylquinoline-6-yl)-pyridin-2-yl)-2-(3,5-difluorophenyl)ethyl)-2-(3-(difluoromethyl)-5,6-dihydro-4,5-(methano)-6,6-difluoro-cyclopenta[c]pyrazol-1(4H)-yl)acetamide] | 17% | 10700 nM
16 | Cc1cccc(-c2cccnc2[C@H](Cc2cc(F)cc(F)c2)NC(=O)Cn2nc(C(F)(F)F)c3c2CCCC3)c1 [Example 76, (S)—N-(2-(3,5-difluorophenyl)-1-(3-m-tolylpyridin-2-yl)ethyl)-2-(3-(trifluoromethyl)-4,5,6,7-tetrahydro-1H-indazol-1-yl)acetamide] | 20% | 11500 nM
17 | O=C(Cn1nc(C(F)F)c2c1C(F)(F)C1CC21)N[C@@H](Cc1cc(F)cc(F)c1)c1ncccc1-c1cnc2cc[nH]c2c1 (stereo partly drawn) [Example 77, (S)—N-(1-(3-(1H-pyrrolo[3,2-b]pyridine-6-yl)-pyridin-2-yl)-2-(3,5-difluorophenyl)ethyl)-2-(3-(difluoromethyl)-5,6-dihydro-4,5-(methano)-6,6-difluoro-cyclopenta[c]pyrazol-1(4H)-yl)acetamide] | 65% | 12400 nM
18 | O=C(Cc1c[nH]c2ccc(F)cc12)N[C@@H](Cc1cc(F)cc(F)c1)c1ncccc1-c1ccc(Cl)cc1Cl [Example 78, (S)—N-(1-(3-(2,4-dichlorophenyl)pyridin-2-yl)-2-(3,5-difluorophenyl)ethyl)-2-(5-fluoro-1H-indol-3-yl)acetamide] | 11% | 7890 nM
19 | NC(=O)c1cc(-c2cccnc2[C@H](Cc2cc(F)cc(F)c2)NC(=O)Cn2nc(C(F)(F)F)c3c2CCCC3=O)ccc1F [Example 79F, (S)-5-(2-(2-(3,5-difluorophenyl)-1-(2-(4-oxo-3-(trifluoromethyl)-4,5,6,7-tetrahydro-1H-indazol-1-yl)acetamido)ethyl)pyridin-3-yl)-2-fluorobenzamide] | 19% | > 50600 nM
20 | CCOC(=O)c1nn(CC(=O)N[C@@H](Cc2cc(F)cc(F)c2)c2ncccc2-c2ccc(F)c(C(N)=O)c2)c2c1CC1CC2C1 [Example 81D, (S)-5-(2-(2-(3,5-difluorophenyl)-1-(2-(4,5,6,7-tetrahydro-3-carboethoxy-5,7-(methano)indazol-1-yl)acetamido)ethyl)pyridin-3-yl)-2-fluorobenzamide] | 75% | 16700 nM
21 | O=C(Cc1c[nH]c2ccc(F)cc12)N[C@@H](Cc1cc(F)cc(F)c1)c1ncccc1-c1ccc(S(=O)(=O)N2CCOCC2)cc1 [Example 82, (S)—N-(2-(3,5-difluorophenyl)-1-(3-(4-(morpholinosulfonyl)phenyl)pyridin-2-yl)ethyl)-2-(5-fluoro-1H-indol-3-yl)acetamide] | 114% | 19300 nM
22 | O=C(Cn1nc(C(F)(F)F)c2c1CCCC2)N[C@@H](Cc1cc(F)cc(F)c1)c1ncccc1-c1cccc(OC(F)(F)F)c1 [Example 84, (S)—N-(2-(3,5-difluorophenyl)-1-(3-(3-(trifluoromethoxy)phenyl)pyridin-2-yl)ethyl)-2-(3-(trifluoromethyl)-4,5,6,7-tetrahydro-1H-indazol-1-yl)acetamide] | 18% | 9050 nM
23 | O=C(Cn1nc(C(F)F)c2c1C(F)(F)C1CC21)N[C@@H](Cc1cc(F)cc(F)c1)c1ncccc1-c1cnc2nccnc2c1 (stereo partly drawn) [Example 85, (S)—N-(1-(3-(pyrido[2,3-b]pyrazin-7-yl)-pyridin-2-yl)-2-(3,5-difluorophenyl)ethyl)-2-(3-(difluoromethyl)-5,6-dihydro-4,5-(methano)-6,6-difluoro-cyclopenta[c]pyrazol-1(4H)-yl)acetamide] | 9% | 43000 nM
